Test results: PubChem BioAssay AID504702 (Southern Research Specialized Biocontainment Screening …, 2011)
“And” between values parts separate entries of the source, which are not always exact repeats. Equal values may be shown once. The source made the active and inactive calls. How the calls were made is not given here.

Assays:
[1] = M. tuberculosis growth inhibition with meropenem, dose response, H37Rv, set 2 (AID 504702);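 further: growth read by Alamar Blue after 7 days plus overnight incubation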; details: M. tuberculosis H37Rv with meropenem, growth inhibition
[2] = system: M. tuberculosis H37Rv with meropenem, growth inhibition; experiment: as above; details: for IC90: measured here: IC90 growth with meropenem

Compound | growth inhibition ([1]; at 25 µM (top of the series)) | IC50 [2] | IC90 [2] | growth inhibition ([1]; at 18.8 µM (top of the series))
COc1ccc2nc(NC(=O)COc3ccc(C)cc3)sc2c1 | -3.26% (inactive) |  |  | 
N/C(=N\c1nc2ccccc2o1)NC(=O)c1ccccc1 | 2.3% (inactive) |  |  | 
O=C(Cc1csc(-c2ccccc2F)n1)Nc1nc2ccccc2[nH]1 | 1.69% (inactive) |  |  | 
COc1cccc(NC(=O)C2CC2)c1 |  | 0.58 µM and 3.28 µM | > 25 µM | 
COC(=O)c1sc(-c2ccc(C(C)(C)C)cc2)cc1NC(=O)CCC(=O)O |  | 3.46 µM and 7.32 µM | > 25 µM | 
Cc1cccc(C)c1OCC(=O)Nc1nc2ccccc2s1 | -9.19% (inactive) |  |  | 
COc1cccc(NC(=S)Nc2cc(C)cc(C)n2)c1 |  | 7.2 µM | > 25 µM | 
Cc1ccccc1OCC(=O)Nc1noc(-c2ccccc2)n1 | -4.18% (inactive) |  |  | 
CC(=O)c1c(C)n(-c2ccccc2)c2ccc(OS(=O)(=O)C(F)(F)F)cc12 |  |  | > 25 µM | 
CCCOc1ccc2c(c1)c(C(C)=O)c(C)n2-c1ccccc1 | 20.4% (inactive) |  |  | 
O=C(Nc1nc2ccccc2[nH]1)c1ccc(Cl)c(Cl)c1 |  | 0.81 µM | > 25 µM | 
COC(=O)c1c(C)[nH]c2ccc(F)cc12 | -3.53% (inactive) |  |  | 
N/C(=N\c1nc2ccccc2o1)NC(=O)c1ccccc1Br |  | 3.04 µM | > 25 µM | 
CCOc1ccc2c(c1)cc(C)n2-c1ccccc1 |  | 11.5 µM | > 25 µM | 
CCOc1ccc2c(c1)c(C(C)=O)c(C)n2Cc1ccco1 | -2.87% (inactive) |  |  | 
N/C(=N\c1nc2ccccc2o1)NC(=O)c1ccc(F)cc1 |  | 9.64 µM | > 25 µM | 
Oc1ccc2[nH]ccc2c1 | 3.81% (inactive) |  |  | 
Cc1ccccc1OCC(=O)Nc1nnn(C)n1 | 0.35% (inactive) |  |  | 
CC(Oc1ccc(Cl)cc1)C(=O)Nc1nc2ccccc2s1 (configuration not stated) | -2.09% (inactive) |  |  | 
Cc1ccc(OCC(=O)Nc2ccc(Cl)cc2)c(C)c1 | -3.91% (inactive) |  |  | 
Cc1ccccc1OCC(=O)Nc1ccccc1N1CCCCC1 |  | 6.13 µM and 8.97 µM | > 25 µM | 
CC(C)Cn1c2c(c(O)c(C(=O)Nc3nccs3)c1=O)CCCC2 | -0.17% (inactive) |  |  | 3.14% (inactive)
CCOc1ccc2c(c1)c(CC)c(C)n2-c1ccccc1 |  | 4.42 µM | > 25 µM | 
Cc1cc2ccccc2[nH]1 | 0.33% (inactive) |  |  | 
Cc1ccc2sc(NC(=O)COc3ccccc3)nc2c1C | 14.4% (inactive) |  |  | 

Compound | growth inhibition ([1]; at 25 µM (top of the series)) | IC50 [2] | IC90 [2] | growth inhibition ([1]; at 18.8 µM (top of the series))
COc1ccc2nc(NC(=O)c3oc4ccccc4c3C)sc2c1 | -4.34% (inactive) |  |  | 
CCOc1ccc2nc(NC(=O)COc3ccccc3)sc2c1 | -8.57% (inactive) |  |  | 
COc1ccc2[nH]c(C)cc2c1 | 0.56% (inactive) |  |  | 
CC(=O)Nc1ccc2nc(NC(=O)COc3ccccc3)sc2c1 | -0.49% (inactive) |  |  | 
Cc1onc(-c2c(Cl)cccc2Cl)c1/C(N)=N/OC(=O)C1CC1 |  | 1.47 µM | > 25 µM | 
O=C(COc1ccccc1Cl)Nc1nc2ccccc2s1 | -4.37% (inactive) |  |  | 
COc1ccc2nc(NC(=O)COc3ccc(Cl)cc3)sc2c1 | 0.35% (inactive) |  |  | 
CCOc1ccc2[nH]c(C)cc2c1 | -0.67% (inactive) |  |  | 
Cc1ccc(OCC(=O)Nc2nc3c(Cl)cccc3s2)cc1 | -2.68% (inactive) |  |  | 
CC(Oc1ccccc1)C(=O)Nc1nc2ccc(S(C)(=O)=O)cc2s1 (configuration not stated) | -1.72% (inactive) |  |  | 
CCOc1ccc(NC(=O)COc2ccc(C)cc2C)cc1 | -3.23% (inactive) |  |  | 
COc1ccc(Cl)cc1C(=O)Nc1nc2ccccc2[nH]1 |  | 16.2 µM | > 25 µM | 
COc1ccc2oc(C(=O)Nc3nc4ccccc4[nH]3)c(C)c2c1 |  |  | > 25 µM | 
CCc1ccc2nc(/N=C(\N)NC(=O)c3ccccc3)nc(C)c2c1 |  | 0.82 µM | > 25 µM | 
Cc1cc2cc(Cl)ccc2n1-c1ccccc1 | 16.5% (inactive) |  |  | 
COc1ccc2c(c1)cc(C)n2-c1ccccc1 |  | 6.88 µM | > 25 µM | 
CCOc1ccc2[nH]cc(C(=O)OC)c2c1 |  |  | > 25 µM | 
c1ccc(OCc2nnc(-c3ccccc3)o2)cc1 |  | 15 µM and 5.67 µM | > 25 µM | 
Cc1ccccc1C(=O)Nc1nc2ccccc2[nH]1 |  | 8.75 µM | > 25 µM | 
O=C(CCS(=O)(=O)c1ccc(F)cc1)Nc1nnc(-c2cccs2)o1 |  | 22.4 µM | > 25 µM | 
Cc1c(OCc2ccc(C(=O)O)cc2)ccc2c(-c3ccccc3)cc(=O)oc12 |  | 3.3 µM and 3.99 µM | > 25 µM | 
CCOc1ccc2c(c1)c(C(C)=O)c(C)n2-c1cccc(Cl)c1 |  | 10.5 µM | > 25 µM | 
COc1ccc(C(=O)Nc2ccc3nc(N4CCCCC4)cc(C)c3c2)c(OC)c1 |  | 17.6 µM | > 25 µM | 
O=C(COC(=O)C1=COCCO1)Nc1ccc2c(c1)OCO2 |  | 9.76 µM | > 25 µM | 
CCOc1ccc2c(c1)c(C(C)=O)c(C)n2-c1ccccc1 |  | 0.66 µM and 0.52 µM | > 18.8 µM and 2.79 µM | 
